18 molecules from patent US20250136606A1, “MODULATORS OF TRPML, THEIR COMPOSITIONS AND METHODS OF USE” (Caraway Therapeutics, Inc., priority 2021, published 2025) can be followed below.

Format in all cases: cell-based
The target of assay [1] is T1, TRPML2 (Homo sapiens, UniProt Q8IZK6).
T1 construct: expressed in transfected cells
T1 sequence (Q8IZK6 1-566): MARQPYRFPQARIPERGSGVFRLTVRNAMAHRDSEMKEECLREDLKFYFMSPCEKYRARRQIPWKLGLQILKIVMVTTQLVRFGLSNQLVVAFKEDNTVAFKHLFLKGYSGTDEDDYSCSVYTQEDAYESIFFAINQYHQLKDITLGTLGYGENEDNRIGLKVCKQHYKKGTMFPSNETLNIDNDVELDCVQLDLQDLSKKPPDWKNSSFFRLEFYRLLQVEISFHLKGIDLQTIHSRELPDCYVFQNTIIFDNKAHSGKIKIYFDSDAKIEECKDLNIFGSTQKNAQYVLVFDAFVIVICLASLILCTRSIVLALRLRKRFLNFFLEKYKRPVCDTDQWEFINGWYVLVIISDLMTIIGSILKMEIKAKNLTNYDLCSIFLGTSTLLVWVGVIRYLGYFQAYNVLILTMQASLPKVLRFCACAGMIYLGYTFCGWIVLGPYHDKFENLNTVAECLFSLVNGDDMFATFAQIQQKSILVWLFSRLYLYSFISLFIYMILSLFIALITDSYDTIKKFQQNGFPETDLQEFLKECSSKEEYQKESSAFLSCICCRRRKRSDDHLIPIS
The assay can be described thus: Fluorescent TRPML2 assay (performed as for TRPML1, substituting the TRPML2 subtype). Summed up:
(§1)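 HEK-293 Trex, dox-induced (0.5 ug/mL), mutated for surface expression. Fluo4-AM 1 micromolar load ~60 min, dark; buffer modified Ringer's, 10 mM Ca. Cpds 20 micromolar–6 nanomolar final, half-log, n=3. Read ex 480/em 540; % activity vs controls; EC50 nonlinear fit.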

In assay [2] the target is T2, TRPML3 (Homo sapiens, UniProt Q8TDD5).
T2 construct: expressed in transfected cells
T2 sequence (Q8TDD5 1-553): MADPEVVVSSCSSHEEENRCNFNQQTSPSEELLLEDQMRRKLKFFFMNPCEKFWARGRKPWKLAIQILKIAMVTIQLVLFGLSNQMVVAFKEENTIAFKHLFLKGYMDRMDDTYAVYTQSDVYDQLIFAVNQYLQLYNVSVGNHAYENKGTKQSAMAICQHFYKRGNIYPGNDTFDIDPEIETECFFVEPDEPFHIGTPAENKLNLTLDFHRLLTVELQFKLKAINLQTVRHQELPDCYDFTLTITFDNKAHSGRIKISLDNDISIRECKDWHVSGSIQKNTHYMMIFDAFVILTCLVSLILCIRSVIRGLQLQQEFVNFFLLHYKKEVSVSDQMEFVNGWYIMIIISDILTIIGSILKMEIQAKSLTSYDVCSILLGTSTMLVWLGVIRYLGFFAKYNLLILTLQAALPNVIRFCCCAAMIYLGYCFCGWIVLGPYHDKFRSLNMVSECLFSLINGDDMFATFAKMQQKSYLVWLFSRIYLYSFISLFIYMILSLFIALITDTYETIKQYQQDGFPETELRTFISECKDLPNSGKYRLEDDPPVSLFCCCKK
Put plainly: Fluorescent TRPML3 assay (performed as for TRPML1, substituting the TRPML3 subtype). The procedure, abridged:
as §1

Assay [3] concerns the target TRPML1 (Homo sapiens, UniProt Q9GZU1). Put plainly: Fluorescent TRPML1 assay (Fluo4-AM calcium fluorescence in doxycycline-induced HEK-293 Trex cells). The procedure, abridged:
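First, expression of surface-targeted mutant human TRPML1 is induced in HEK-293 Trex cells with 0.5 ug/mL doxycycline the day before. Next, cells take up 1 micromolar Fluo4-AM in Ringer's with 0.1% Pluronic. Finally, they are added to compounds (6 nanomolar–20 micromolar final) in 10 mM calcium Ringer's and fluorescence is read.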

Chain of TRPML1 (Q9GZU1 whole entry L15A/L16A/L577A/L578A, form open): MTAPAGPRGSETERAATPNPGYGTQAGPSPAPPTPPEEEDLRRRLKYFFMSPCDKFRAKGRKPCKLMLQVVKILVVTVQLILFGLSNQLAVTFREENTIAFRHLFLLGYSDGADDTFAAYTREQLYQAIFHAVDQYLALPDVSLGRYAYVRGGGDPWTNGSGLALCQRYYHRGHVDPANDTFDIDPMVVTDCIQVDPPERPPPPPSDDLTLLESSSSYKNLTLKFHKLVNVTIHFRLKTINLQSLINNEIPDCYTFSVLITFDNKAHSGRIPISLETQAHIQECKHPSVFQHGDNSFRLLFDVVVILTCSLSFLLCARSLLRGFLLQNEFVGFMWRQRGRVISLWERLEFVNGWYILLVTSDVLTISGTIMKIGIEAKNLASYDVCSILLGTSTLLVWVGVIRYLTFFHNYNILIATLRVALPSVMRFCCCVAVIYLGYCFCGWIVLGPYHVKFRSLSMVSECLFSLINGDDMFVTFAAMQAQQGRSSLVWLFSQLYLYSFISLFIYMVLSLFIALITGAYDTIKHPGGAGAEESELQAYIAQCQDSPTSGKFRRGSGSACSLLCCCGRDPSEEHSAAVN

`Cc1cn(-c2cncc(C#N)c2)c2ncnc(N3C[C@@H](C)N(C(=O)OC(C)(C)C)C[C@@H]3C)c12` [Compound 675, tert-butyl (2R,5S)-4-(7-(5-cyanopyridin-3-yl)-5-methyl-7H-pyrrolo[2,3-d]pyrimidin-4-yl)-2,5-dimethylpiperazine-1-carboxylate]: the EC50 (in general, the concentration needed to bring the measured effect to its halfway point) in assay [1] is 100 to 500 nM; in assay [2], 100 to 500 nM; in assay [3], below 100 nM.
With `Cc1cn(-c2ccc(F)cc2)c2ncnc(N3C[C@@H](C)N(C(=O)OC(C)(C)C)C[C@@H]3C)c12` [Compound 676, tert-butyl (2R,5S)-4-(7-(4-fluorophenyl)-5-methyl-7H-pyrrolo[2,3-d]pyrimidin-4-yl)-2,5-dimethylpiperazine-1-carboxylate], the EC50 was 100 to 500 nM in assay [1], below 100 nM in assay [2] and below 100 nM in assay [3].
Consider `Cc1cn(-c2cc(F)cc(Cl)c2)c2ncnc(N3C[C@@H](C)N(C(=O)OC(C)(C)C)C[C@@H]3C)c12` [Compound 677, tert-butyl (2R,5S)-4-(7-(3-chloro-5-fluorophenyl)-5-methyl-7H-pyrrolo[2,3-d]pyrimidin-4-yl)-2,5-dimethylpiperazine-1-carboxylate], for which the EC50 in assay [1] was 100 to 500 nM; in assay [2] it was below 100 nM; in assay [3] it was below 100 nM.
Regarding `Cc1cn(-c2cc(F)ccn2)c2ncnc(N3CCN(C(=O)OC(C)(C)C)[C@H](C)C3)c12` [Compound 678, tert-butyl (R)-4-(7-(4-fluoropyridin-2-yl)-5-methyl-7H-pyrrolo[2,3-d]pyrimidin-4-yl)-2-methylpiperazine-1-carboxylate], the EC50 in assay [1], in assay [2] and in assay [3] was 100 to 500 nM in each case.
As to `Cc1cn(-c2cc(C(F)(F)F)ccn2)c2ncnc(N3CCN(C(=O)OC(C)(C)C)[C@H](C)C3)c12` [Compound 679, tert-butyl (R)-2-methyl-4-(5-methyl-7-(4-(trifluoromethyl)pyridin-2-yl)-7H-pyrrolo[2,3-d]pyrimidin-4-yl)piperazine-1-carboxylatee], the EC50 in assay [1], in assay [2] and in assay [3] was below 100 nM in each case.
Consider `Cc1cn(-c2cc(C#N)ccn2)c2ncnc(N3CCN(C(=O)OC(C)(C)C)[C@H](C)C3)c12` [Compound 680, tert-butyl (R)-4-(7-(4-cyanopyridin-2-yl)-5-methyl-7H-pyrrolo[2,3-d]pyrimidin-4-yl)-2-methylpiperazine-1-carboxylate], for which the EC50 in assay [1], in assay [2] and in assay [3] was below 100 nM each time.
As for `Cc1cn(-c2cc(F)ccn2)c2ncnc(N3CCN(C(=O)OC(C)(C)C)C[C@@H]3C)c12` [Compound 681, tert-butyl (S)-4-(7-(4-fluoropyridin-2-yl)-5-methyl-7H-pyrrolo[2,3-d]pyrimidin-4-yl)-3-methylpiperazine-1-carboxylate], the EC50 in assay [1], in assay [2] and in assay [3] was below 100 nM each time.
Take `Cc1cn(-c2cc(C(F)(F)F)ccn2)c2ncnc(N3CCN(C(=O)OC(C)(C)C)C[C@@H]3C)c12` [Compound 682, tert-butyl (S)-3-methyl-4-(5-methyl-7-(4-(trifluoromethyl)pyridin-2-yl)-7H-pyrrolo[2,3-d]pyrimidin-4-yl)piperazine-1-carboxylate]: the EC50 in assay [1], in assay [2] and in assay [3] was below 100 nM each time.
Turning to `Cc1cn(-c2cccc(F)c2)c2ncnc(N3CCN(C(=O)OC(C)(C)C)C[C@@H]3C)c12` [Compound 683, tert-butyl (S)-4-(7-(3-fluorophenyl)-5-methyl-7H-pyrrolo[2,3-d]pyrimidin-4-yl)-3-methylpiperazine-1-carboxylate], the EC50 in assay [1] was 100 to 500 nM; in assay [2], below 100 nM; in assay [3], below 100 nM.
On to `Cc1cn(-c2cccc(C(F)(F)F)c2)c2ncnc(N3CCN(C(=O)OC(C)(C)C)C[C@@H]3C)c12` [Compound 684, tert-butyl (S)-3-methyl-4-(5-methyl-7-(3-(trifluoromethyl)phenyl)-7H-pyrrolo[2,3-d]pyrimidin-4-yl)piperazine-1-carboxylate], for which the EC50 in assay [1], in assay [2] and in assay [3] was below 100 nM in each case.
Regarding `Cc1cn(-c2ccccc2)c2ncnc(N3CCN(C(=O)OC(C)(C)C)C[C@@H]3C)c12` [Compound 685, tert-butyl (S)-3-methyl-4-(5-methyl-7-phenyl-7H-pyrrolo[2,3-d]pyrimidin-4-yl)piperazine-1-carboxylate], the EC50 in assay [1] is 500 to 2000 nM; in assay [2], below 100 nM; in assay [3] it was below 100 nM.
With `Cc1cn(-c2cccc(C#N)c2)c2ncnc(N3CCN(C(=O)OC(C)(C)C)C[C@@H]3C)c12` [Compound 686, tert-butyl (S)-4-(7-(3-cyanophenyl)-5-methyl-7H-pyrrolo[2,3-d]pyrimidin-4-yl)-3-methylpiperazine-1-carboxylate], the EC50 in assay [1], in assay [2] and in assay [3] was below 100 nM throughout.
Take `Cc1cn(-c2cc(F)cc(F)c2)c2ncnc(N3CCN(C(=O)OC(C)(C)C)C[C@@H]3C)c12` [Compound 687, tert-butyl (S)-4-(7-(3,5-difluorophenyl)-5-methyl-7H-pyrrolo[2,3-d]pyrimidin-4-yl)-3-methylpiperazine-1-carboxylate]: the results for the EC50 in assay [1], in assay [2] and in assay [3] were 100 to 500 nM, below 100 nM and below 100 nM, respectively.
As to `Cc1cn(-c2cccc(Cl)c2)c2ncnc(N3CCN(C(=O)OC(C)(C)C)C[C@@H]3C)c12` [Compound 688, tert-butyl (S)-4-(7-(3-chlorophenyl)-5-methyl-7H-pyrrolo[2,3-d]pyrimidin-4-yl)-3-methylpiperazine-1-carboxylate], the EC50 in assay [1], in assay [2] and in assay [3] was below 100 nM in each case.
Regarding `Cc1cn(-c2cncc(F)c2)c2ncnc(N3CCN(C(=O)OC(C)(C)C)C[C@@H]3C)c12` [Compound 689, tert-butyl (S)-4-(7-(5-fluoropyridin-3-yl)-5-methyl-7H-pyrrolo[2,3-d]pyrimidin-4-yl)-3-methylpiperazine-1-carboxylate], the EC50 in assay [1] was 100 to 500 nM; in assay [2] it was 100 to 500 nM; in assay [3], below 100 nM.
In the case of `Cc1cn(-c2ccccn2)c2ncnc(N3CCN(C(=O)OC(C)(C)C)C[C@@H]3C)c12` [Compound 690, tert-butyl (S)-3-methyl-4-(5-methyl-7-(pyridin-2-yl)-7H-pyrrolo[2,3-d]pyrimidin-4-yl)piperazine-1-carboxylate], the EC50 is 500 to 2000 nM in assay [1], below 100 nM in assay [2] and below 100 nM in assay [3].
As to `Cc1cn(-c2ccc(F)cc2)c2ncnc(N3CCN(C(=O)OC(C)(C)C)C[C@@H]3C)c12` [Compound 692, tert-butyl (S)-4-(7-(4-fluorophenyl)-5-methyl-7H-pyrrolo[2,3-d]pyrimidin-4-yl)-3-methylpiperazine-1-carboxylate], the EC50 in assay [1], in assay [2] and in assay [3] was below 100 nM in each case.
Turning to `Cc1cn(-c2cc(F)cc(Cl)c2)c2ncnc(N3CCN(C(=O)OC(C)(C)C)C[C@@H]3C)c12` [Compound 693, tert-butyl (S)-4-(7-(3-chloro-5-fluorophenyl)-5-methyl-7H-pyrrolo[2,3-d]pyrimidin-4-yl)-3-methylpiperazine-1-carboxylate], the EC50 in assay [1] was 100 to 500 nM; in assay [2] it was below 100 nM; in assay [3], below 100 nM.
